Series [1] is described as follows: Dispersion in simulated gastric and intestinal fluids. The series is classed as physicochemical. On the procedure: Dispersion of the formulations in simulated gastric and intestinal fluids is evaluated over a 12 hour period.
The conditions of series [2]: cited from earlier work.
The target of a further series is CB2 (Homo sapiens, UniProt P34972). The settings on record: WHO assessment; cited from earlier work.
Sequence of CB2 (P34972 whole entry, species assumed): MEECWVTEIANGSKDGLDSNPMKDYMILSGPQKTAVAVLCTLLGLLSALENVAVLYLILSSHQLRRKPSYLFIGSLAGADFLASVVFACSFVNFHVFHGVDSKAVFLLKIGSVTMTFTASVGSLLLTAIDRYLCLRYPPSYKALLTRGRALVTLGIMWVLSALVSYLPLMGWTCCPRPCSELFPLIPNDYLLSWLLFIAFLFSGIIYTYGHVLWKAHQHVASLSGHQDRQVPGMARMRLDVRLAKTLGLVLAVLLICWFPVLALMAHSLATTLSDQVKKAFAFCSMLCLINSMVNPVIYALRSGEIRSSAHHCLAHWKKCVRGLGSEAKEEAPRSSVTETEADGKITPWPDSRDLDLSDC

As for `C=C(C)[C@@H]1CCC(C)=C[C@H]1c1c(O)cc(CCCCC)cc1O` [Cannabidiol], the dispersion result is recorded as “no dispersion” in series [1] (FaSSGF, pH 1.2, 12 hour period); “about 20%” in series [1] (FaSSIF, pH 6.5, 12 hour period); “about 20%” in series [1] (FeSSIF, pH 5.5, 12 hour period). In series [1] (FaSSIF, FeSSIF and FaSSGF overall), the “dispersion pattern in the biorelevant media” value is listed as “poor dispersion”. For the same compound, in series [2], the aqueous solubility result was “approximately 0.013 milligrams per milliliter”. Further, the “affinity to CB2” value on CB2 is listed as “low affinity”.

Values taken from patent US20230075007A1 (IMPACT NATURALS, INC., priority 2021, published 2023).
